# Assay results published in paper PMC4183567, “Cysteine Transport through Excitatory Amino Acid Transporter 3 (EAAT3)” (PLoS ONE, 2014).
# Where “and” joins values, the source holds several entries; their conditions need not be identical. Equal values may be shown once. Read-outs that look alike come from different tables or passages of the source.
# Experiments:
# [1] = target: T1, EAAT1 (Homo sapiens, UniProt P43003); assay: Two-electrode voltage clamp transport currents in Xenopus oocytes expressing EAAT1; assay type: cell-based; conditions: 1 mM substrate vs 1 mM glutamate, -60 mV
# T1 construct: expressed in transfected cells; host or cells: Xenopus oocytes injected with mRNA
# Method: (§1) mRNA from linearized pOTV-EAAT1, pOTV-EAAT2 and pOTV-EAAT3 was generated as previously described and resuspended in RNAase-free water and used for oocytes injections. Xenopus oocytes where injected with 50 nl of mRNA and incubated at 18°C in 96 mM NaCl, 2 mM KCl, 1.8 mM CaCl2, 1.0 mM MgCl2, 5 mM HEPES, pH 7.4 (ND96) supplemented with 2.5 mM Sodium Pyruvate and Gentamicyn for 2 to 3 days prior to using in electrophysiological recordings and radio-labeled transport experiments.
# (§2) Oocytes were held at −60 mV, and currents elicited by 200 ms voltage steps between −120 mV and +60 mV were filtered at 2 kHz (−3dB) and digitalized with a sampling rate of 10 kHz using a Digidata AD/DA converter (Molecular Devices, Sunnyvale, CA, USA). Borosilicate pipets where filled with 3 M KCl and typical resistances where 0.2 to 1 MΩ. Transport currents were determined at −60 mV in a gluconate-based ND96 solution. In order to dialyze internal chloride, oocytes were incubated 12 to 24 hours in the gluconate solution. Anion currents were determined at positive potentials (+60 mV) after exchanging the external solution to NO3-based ND96 (replacement of 96 mM NaCl with 96 mM NaNO3) solution in the absence or in the presence of 1 mM external substrates. […] Data were analyzed with a combination of pClamp 9.2 (Axon Instrument) and Sigma Plot (Jandel Scientific, San Rafael, CA, USA). […]
# [2] = system: EAAT3 and ASCT1; assay: Release of preloaded [35S]-L-cysteine from Xenopus oocytes co-expressing EAAT3 and ASCT1; assay type: cell-based, human
# Method: mRNA from linearized pOTV-EAAT1, pOTV-EAAT2 and pOTV-EAAT3 was generated as previously described and resuspended in RNAase-free water and used for oocytes injections.
# (§3) Oocytes were washed 3 times in ND96 buffer followed by incubation for 10 min with non-radiolabeled substrates as indicated. The supernatant was removed and collected for scintillation counting, while the oocytes were lysed in 1% sodium dodecylsulfate (SDS). The oocytes lysate and supernatant were counted separately by liquid scintillation counting to determine both retained and released radioactivity respectively. Percent of released radioactivity was determined as a function of the released/(retained + released).
# [3] = system: EAAT2; parameters: method as in PMID 8782106; conditions: EAAT2, low affinity; read-out: Km for cysteine transport; cited from earlier work
# [4] = target: T2, EAAT3 (Homo sapiens, UniProt P43005); assay: mEGFPpH fluorescence imaging of intracellular pH in HEK293 cells co-expressing EAAT3; conditions: EAAT3 HEK293 cells; for mEGFPpH fluorescence change: 1 mM perfusion; for slope of fluorescence change normalized to that of 100 µM glutamate: selenocysteine at 100 µM, cysteine change opposite in direction
# T2 sequence (P43005 1-524): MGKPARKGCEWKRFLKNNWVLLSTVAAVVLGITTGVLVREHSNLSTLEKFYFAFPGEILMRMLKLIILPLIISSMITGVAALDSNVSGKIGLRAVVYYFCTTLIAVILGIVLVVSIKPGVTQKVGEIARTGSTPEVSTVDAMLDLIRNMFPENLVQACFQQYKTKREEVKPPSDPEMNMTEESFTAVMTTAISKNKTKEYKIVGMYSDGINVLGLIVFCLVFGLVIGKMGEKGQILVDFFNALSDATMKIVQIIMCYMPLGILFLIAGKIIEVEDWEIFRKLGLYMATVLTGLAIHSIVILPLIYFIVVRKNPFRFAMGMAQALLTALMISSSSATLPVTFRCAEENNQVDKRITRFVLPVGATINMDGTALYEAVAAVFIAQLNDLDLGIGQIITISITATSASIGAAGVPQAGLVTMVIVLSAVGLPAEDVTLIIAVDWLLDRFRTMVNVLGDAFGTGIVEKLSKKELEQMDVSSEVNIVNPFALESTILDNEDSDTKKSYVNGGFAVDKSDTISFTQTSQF
# From the text: (§7) Cells expressing mEGFPpH were imaged with a Zeiss Axiovert 135T inverted microscope with a 40X NeoFluar oil immersion objective (NA1.3). A Lambda DG4 (Sutter Instrument Co.) equipped with a xenon arc lamp was used for high-speed excitation wavelength switching. Images were collected using either a Quantix (Roper Scientific, Tucson, AZ) or an Orca ER (Hammamatsu Co.) cooled CCD. For pH imaging experiments, the fluorescence filters (Omega Optical) were: excitation 405±20 and 485±7.5; dichroic 400-480-585DLRP; emission 510±11.5. Software control and data acquisition were accomplished using Axon Imaging Workbench (INDEC Biosystems) or OpenLab acquisition software (Improvision, Perkin Elmer). Cells were incubated at room temperature with continuous perfusion using standard buffer containing (in mM): 146 NaCl, 5 KCl, 5 HEPES, 2.5 CaCl2 and 1.2 MgCl2 at pH 7.35 with additions (substrates etc.) as indicated in figure legends. Acquisition exposure times were identical for both 405 nm and 485 nm excitation wavelengths adjusted so that the 510 emission was not saturated for either excitation wavelength. Prior to perfusion with buffers containing substrates, cells were perfused in standard buffer to achieve a stable base line. Fluorescence was reported as the ratio of fluorescence at 510 nm by excitation with 485 and 405 nm wavelengths (F485/F405).
# [5] = Protonation state calculated with the Henderson-Hasselbalch equation; assay type: physicochemical
# [6] = target: T2, EAAT3; assay: Two-electrode voltage clamp transport currents in Xenopus oocytes expressing EAAT3; assay type: cell-based; conditions: for transport current amplitude relative to glutamate transport current: 1 mM substrate vs 1 mM glutamate, EAAT3 oocytes, -60 mV
# Method: as §1
# (§4) Oocytes were held at −60 mV, and currents elicited by 200 ms voltage steps between −120 mV and +60 mV were filtered at 2 kHz (−3dB) and digitalized with a sampling rate of 10 kHz using a Digidata AD/DA converter (Molecular Devices, Sunnyvale, CA, USA). Borosilicate pipets where filled with 3 M KCl and typical resistances where 0.2 to 1 MΩ. Transport currents were determined at −60 mV in a gluconate-based ND96 solution. In order to dialyze internal chloride, oocytes were incubated 12 to 24 hours in the gluconate solution. Anion currents were determined at positive potentials (+60 mV) after exchanging the external solution to NO3-based ND96 (replacement of 96 mM NaCl with 96 mM NaNO3) solution in the absence or in the presence of 1 mM external substrates. In experiments using cysteine as a substrate, all solutions contained 2 mM dithiothreitol (DTT). Data were analyzed with a combination of pClamp 9.2 (Axon Instrument) and Sigma Plot (Jandel Scientific, San Rafael, CA, USA). Whole cell current amplitudes are shown without any subtraction protocol. Current-voltage relationships were constructed by plotting the isochronal current 6 ms after the voltage step versus the membrane potential. All data are given as the mean ± standard deviation of the mean (SDM). For evaluation the statistical relevance, the Student’s t-Test was used with an α of 0.05.
# [7] = system: EAAT3; parameters: method as in PMID 8782106; conditions: EAAT3 vs other EAATs; cited from earlier work
# [8] = target: T3, EAAT2 (Homo sapiens, UniProt P43004); assay: Substrate inhibition of [3H]-L-glutamate uptake in HEK293 cells expressing EAAT2; assay type: cell-based; parameters: expressed in transfected cells; host or cells: HEK293
# Method: (§5) For radiolabeled transport experiments, 2×10^6 cells were transfected in 1 mL of Opti-Mem (Life Technologies) using 6 µL of Lipofectamine 2000 (Invitrogen) with 1 µg pCMV-EAAT2 or pCMV-EAAT3 DNA and plated at 5×10^4 cells/well in 24 well Costar (Corning) plates with 0.5 mL DMEM culture media prepared as above. Following transfection and plating, cells were cultured 2–3 days prior to [^3H]-L-Glutamate transport experiments.
# (§6) Transport was allowed to proceed for 10 min and was terminated by 3 washes with cold perfusion buffer. Cells were lysed with 1% SDS/0.1N NaOH and radioactivity determined by scintillation counting. Data analysis was performed using Graphpad Prism (Graphpad Software Inc.).
# [9] = target: T2, EAAT3; assay: Substrate inhibition of [3H]-L-glutamate uptake in HEK293 cells expressing EAAT3; assay type: cell-based; parameters: expressed in transfected cells; host or cells: HEK293
# Method: as §5, §6
# [10] = target: T3, EAAT2; assay: Two-electrode voltage clamp transport currents in Xenopus oocytes expressing EAAT2; assay type: cell-based; conditions: 1 mM substrate vs 1 mM glutamate, -60 mV
# Method: as §1, §2
# [11] = target: T4, EAAT3 and ASCT1 (Homo sapiens, UniProt P43005); assay: Release of preloaded [3H]-L-glutamate from Xenopus oocytes co-expressing EAAT3 and ASCT1; assay type: cell-based; conditions: extracellular cysteine, concentration not given
# T4 construct: expressed in transfected cells; host or cells: Xenopus oocytes
# T4 sequence (P43005 1-524): T2 sequence (P43005 1-524)
# Method: as §1, §3
# [12] = target: T3, EAAT2; assay: mEGFPpH fluorescence imaging of intracellular pH in HEK293 cells co-expressing EAAT2; assay type: cell-based; parameters: expressed in transfected cells; host or cells: HEK293; conditions: for mEGFPpH fluorescence change: 1 mM perfusion; for slope of fluorescence change normalized to that of 100 µM glutamate: selenocysteine at 100 µM
# From the text: as §7
# [13] = target: T2, EAAT3; assay: Substrate-gated anion (NO3) currents in Xenopus oocytes expressing EAAT3; assay type: cell-based; conditions: 1 mM substrate, NO3-based solution, Figure 2C, n = 4
# Method: as §1, §4
# [14] = amino acid side chain; cited from earlier work
# T3 sequence (P43004 whole entry): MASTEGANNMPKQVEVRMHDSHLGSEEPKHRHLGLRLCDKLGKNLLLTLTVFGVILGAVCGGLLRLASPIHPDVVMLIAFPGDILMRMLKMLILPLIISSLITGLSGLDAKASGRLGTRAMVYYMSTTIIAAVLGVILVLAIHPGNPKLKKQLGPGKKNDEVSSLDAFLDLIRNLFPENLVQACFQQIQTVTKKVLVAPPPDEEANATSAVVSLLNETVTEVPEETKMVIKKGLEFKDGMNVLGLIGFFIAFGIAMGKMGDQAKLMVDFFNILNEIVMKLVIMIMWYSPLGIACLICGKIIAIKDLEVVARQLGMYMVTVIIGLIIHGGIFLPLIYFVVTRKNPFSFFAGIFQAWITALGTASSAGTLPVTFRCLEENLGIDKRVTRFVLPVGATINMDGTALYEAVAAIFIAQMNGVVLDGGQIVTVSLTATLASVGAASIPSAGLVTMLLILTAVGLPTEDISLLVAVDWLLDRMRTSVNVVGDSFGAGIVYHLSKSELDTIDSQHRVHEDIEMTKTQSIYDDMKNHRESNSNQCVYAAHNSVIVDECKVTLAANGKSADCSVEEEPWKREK
# T1 sequence (P43003 whole entry): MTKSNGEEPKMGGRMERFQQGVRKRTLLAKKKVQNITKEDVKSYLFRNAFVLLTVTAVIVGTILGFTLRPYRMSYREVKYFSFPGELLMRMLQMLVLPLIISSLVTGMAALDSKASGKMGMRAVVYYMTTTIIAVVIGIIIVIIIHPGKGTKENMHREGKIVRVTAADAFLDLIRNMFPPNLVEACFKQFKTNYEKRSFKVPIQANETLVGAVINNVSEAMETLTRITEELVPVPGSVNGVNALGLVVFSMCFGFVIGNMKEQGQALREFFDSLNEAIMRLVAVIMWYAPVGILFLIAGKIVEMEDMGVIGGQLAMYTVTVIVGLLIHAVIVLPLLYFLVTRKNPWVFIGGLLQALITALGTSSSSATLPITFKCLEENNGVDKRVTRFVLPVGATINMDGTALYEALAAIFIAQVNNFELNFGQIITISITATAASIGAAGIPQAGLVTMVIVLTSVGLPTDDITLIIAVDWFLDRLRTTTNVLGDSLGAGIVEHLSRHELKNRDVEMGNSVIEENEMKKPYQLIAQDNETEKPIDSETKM
smiles,measurement,setting,value
"N[C@@H](CS)C(=O)O [cysteine, L-cysteine]",transport current amplitude relative to glutamate transport current,[1],33±1.5%
same,fold increase of [35S]-cysteine release over that released by glutamate application,[2]; 300 µM cysteine vs 100 µM glutamate,5 fold
same,release of preloaded [35S]-L-cysteine,"[2]; 300 µM extracellular substrate, 10 min",10%
same,Km,[3],> 1000 µM
same,mEGFPpH fluorescence change,[4],increase in mEGFPpH fluorescence
same,slope of fluorescence change normalized to that of 100 µM glutamate,[4],0.28±0.03
same,fraction in thiolate form,[5]; pH 6.9,~3.8% and 4%
same,fraction in thiolate (R-S-) form,[5]; pH 8.5,~61%
same,fraction in thiolate form,[5]; pH = 7.5,~14%
same,fraction protonated,[5]; physiological pH,~90%
same,transport current amplitude relative to glutamate transport current,[6],86±14%
same,fold higher apparent affinity for transport (Km) than the other members of the family,[7],approximately 10 fold
same,inhibition at 1000 µM,"[8]; read-out: inhibition of glutamate transport, EAAT2 HEK293 cells, 1 mM inhibitor",20%
same,IC50,[9],631 ± 50 µM
same,inhibition at 1000 µM,"[9]; read-out: inhibition of glutamate uptake, EAAT3 HEK293 cells, 1 mM inhibitor",70%
same,transport current amplitude relative to glutamate transport current,[10],7.0±4.2%
same,release of loaded [3H]-L-glutamate,[11],7.5%
same,mEGFPpH fluorescence change,[12],did not produce observable fluorescence changes from baseline
same,slope of fluorescence change normalized to that of 100 µM glutamate,[12],no observable fluorescence changes
"N[C@@H](C[SeH])C(=O)O [selenocysteine, L-selenocysteine]",anion current amplitude at +60 mV,[13],1.72±0.4 µA
same,side chain pKa,[14],5.3
same,transport current amplitude relative to glutamate transport current,[1],89.5±6.7%
same,mEGFPpH fluorescence change,[4],fluorescence decrease
same,slope of fluorescence change normalized to that of 100 µM glutamate,[4],0.86±0.03
same,fraction in deprotonated state,[5]; physiological pH,> 99%
same,inward transport current,"[6]; 1 µM selenocysteine perfusion, Figure 2A",20 nA
same,transport current amplitude relative to glutamate transport current,[6],95.6±14%
same,IC50,[8],46 ± 12 µM
same,inhibition at 1000 µM,"[8]; HEK293, read-out: inhibition of glutamate transport",~90%
same,IC50,[9],71 ± 10 µM
same,fold lower IC50 than for cysteine,[9]; EAAT3 HEK293 cells,approximately 10 fold
same,inhibition at 1000 µM,"[9]; HEK293, read-out: inhibition of glutamate uptake",> 90%
same,transport current amplitude relative to glutamate transport current,[10],72.1±17%
same,mEGFPpH fluorescence change,[12],fluorescence decrease similar in magnitude to that observed for glutamate
same,slope of fluorescence change normalized to that of 100 µM glutamate,[12],0.85±0.02
